What all share (assay): microbe, parasite or virus in culture
The subject of assay [1] is K. pneumoniae (ATCC BAA-1705). Type of assay: cell-based, Klebsiella pneumoniae. The settings on record: Klebsiella pneumoniae, ATCCBAA1705, clinical strain, 15 replicates in three independent assays. As for the experimental part: (§1) The antimicrobial activities of peptides were evaluated against the Gram-positive bacteria, S. aureus (ATCC 6538), methicillin-resistant Staphylococcus aureus (MRSA) (NCTC 12493), Enterococcus faecalis (E. faecalis) (NCTC 12697); the Gram-negative bacteria, E. coli (ATCC CRM 8739), Klebsiella pneumoniae (K. pneumoniae) (ATCC 43816), Pseudomonas aeruginosa (P. aeruginosa) (ATCC CRM 9027); and the yeast, Candida albicans (C. albicans) (ATCC CRM 10231). Clinical isolates of MRSA (B042 V2E1 A), E. coli (ATCC BAA-2340), K. pneumoniae (ATCC BAA-1705), and P. aeruginosa (B004 V2S2 B) were also used to determine their antimicrobial activities. The suspension of microorganisms in the logarithmic growth phase with a specific final density (Gram-negative and Gram-positive bacteria: 5 × 10^5 CFU/mL; yeast: 1 × 10^6 CFU/mL) was incubated with different peptide concentrations from 1 µM to 512 µM at 37 °C for 24 h. PBS was used as the negative control, and norfloxacin and amphotericin B were selected as the positive control for bacteria and yeast, respectively. Since the Norfloxacin had weak activities against P. aeruginosa (B004 V2S2 B) and K. pneumoniae (ATCC BAA 1705), gentamicin was used as the positive control for these two bacterial strains. The absorbance of each well was obtained using a microplate reader (EL808, Biolise BioTek, Winooski, VT, USA) set at 550 nm wavelength. The MIC value was the lowest concentration of a peptide that inhibits visible bacterial growth. Once the MIC values were determined, an aliquot from the bacterial culture exposed to the peptide at or above its MIC value was inoculated on a Mueller Hinton agar (MHA) and was incubated at 37 for 18 h. The MBC value was the lowest concentration of a peptide that kills 99.9% of bacteria.

Assay [2] concerns P. aeruginosa (B004 V2S2 B). In kind it is cell-based, Pseudomonas aeruginosa. The settings on record: Pseudomonas aeruginosa, clinical strain, 15 replicates in three independent assays. As for the experimental part: as §1
In another assay the test system is MRSA (B042 V2E1 A). Type of assay: cell-based, methicillin-resistant Staphylococcus aureus. The settings on record: Staphylococcus aureus, MRSA, clinical strain, 15 replicates in three independent assays. On the procedure:
as §1

Another assay concerns MRSA (NCTC 12493). Type of assay: cell-based, methicillin-resistant Staphylococcus aureus. The settings on record: Staphylococcus aureus, 15 replicates in three independent assays. As for the experimental part: as §1
The subject of assay [3] is K. pneumoniae (ATCC 43816). In kind it is cell-based, Klebsiella pneumoniae. The settings on record: Klebsiella pneumoniae, ATCC43816, 15 replicates in three independent assays. On the procedure:
as §1

In assay [4] the test system is P. aeruginosa (ATCC CRM 9027). Type of assay: cell-based, Pseudomonas aeruginosa. The settings on record: Pseudomonas aeruginosa, 15 replicates in three independent assays. As for the experimental part: as §1
Another assay relates to E. faecalis (NCTC 12697). Type of assay: cell-based, Enterococcus faecalis. The settings on record: Enterococcus faecalis, NCTC12697, 15 replicates in three independent assays. As for the experimental part: as §1
The test system of another assay is E. coli (ATCC BAA-2340). In kind it is cell-based, Escherichia coli. The settings on record: Escherichia coli, ATCCBAA2340, clinical strain, 15 replicates in three independent assays. On the procedure:
as §1

The next assay has as its system E. coli (ATCC CRM 8739). Type of assay: cell-based, Escherichia coli. The settings on record: Escherichia coli, 15 replicates in three independent assays. On the procedure: as §1
In a further assay the test system is S. aureus (ATCC 6538). In kind it is cell-based, Staphylococcus aureus. The settings on record: Staphylococcus aureus, ATCC6538, 15 replicates in three independent assays. On the procedure:
as §1

The subject of assay [5] is C. albicans (ATCC CRM 10231). In kind it is cell-based, Candida albicans. The settings on record: 15 replicates in three independent assays. As for the experimental part: as §1
Where [6] appears, read: 5 × 10^5 CFU/mL, 37 °C, 24 h, 1-512 µM, absorbance 550 nm, read-out: MIC.
The mark [7] stands for this setting: aliquot plated on MHA, 18 h, kills 99.9%, read-out: MBC.

SMILES strings stand for the structures. Values after ≈ are worked out from the molar mass of the structure shown.

As to `CNC(C)C1CCC(N)C(OC2C(N)CC(N)C(OC3OCC(C)(O)C(NC)C3O)C2O)O1` (stereo not shown) [Gentamicin, reference compound], the figures for the MIC in assay [1] (setting [6]) and in assay [2] (setting [6]) were 2 µM (≈ 0.955 µg/mL) and 1 µM (≈ 0.478 µg/mL), respectively. In addition, the MBC in assay [1] (setting [7]) is 2 µM (≈ 0.955 µg/mL); in [2] (setting [7]) it was 1 µM (≈ 0.478 µg/mL).

For `CCn1cc(C(=O)O)c(=O)c2cc(F)c(N3CCNCC3)cc21` [Norfloxacin, reference compound], the MIC in the assay on MRSA (B042 V2E1 A) (setting [6]) amounted to 2 µM (≈ 0.639 µg/mL); in the assay on MRSA (NCTC 12493) (setting [6]) it was 2 µM (≈ 0.639 µg/mL); in [3] (setting [6]) it was 2 µM (≈ 0.639 µg/mL); in assay [4] (setting [6]), 2 µM (≈ 0.639 µg/mL); in the assay on E. faecalis (NCTC 12697) (setting [6]), 4 µM (≈ 1.28 µg/mL); in the assay with E. coli (ATCC BAA-2340) (setting [6]), 2 µM (≈ 0.639 µg/mL). For the same compound, the MIC in the assay on E. coli (ATCC CRM 8739) (setting [6]) is 1 µM (≈ 0.319 µg/mL); with S. aureus (ATCC 6538) (setting [6]), 2 µM (≈ 0.639 µg/mL). Further, the MBC with MRSA (B042 V2E1 A) (setting [7]) was determined as 2 µM (≈ 0.639 µg/mL); in the assay on MRSA (NCTC 12493) (setting [7]), 2 µM (≈ 0.639 µg/mL); in [3] (setting [7]), 2 µM (≈ 0.639 µg/mL); in [4] (setting [7]), 2 µM (≈ 0.639 µg/mL); in the assay on E. faecalis (NCTC 12697) (setting [7]) it was 4 µM (≈ 1.28 µg/mL); with E. coli (ATCC BAA-2340) (setting [7]) it was 2 µM (≈ 0.639 µg/mL). The MBC with E. coli (ATCC CRM 8739) (setting [7]) was 1 µM (≈ 0.319 µg/mL); in the assay with S. aureus (ATCC 6538) (aliquot plated on MHA, 18 h, kills 99.9% of bacteria, read-out: MBC), 2 µM (≈ 0.639 µg/mL).

With `C[C@@H]1[C@H](O)[C@@H](C)/C=C/C=C/C=C/C=C/C=C/C=C/C=C/[C@H](O[C@@H]2O[C@H](C)[C@@H](O)[C@H](N)[C@@H]2O)C[C@@H]2O[C@](O)(C[C@@H](O)C[C@@H](O)[C@H](O)CC[C@@H](O)C[C@@H](O)CC(=O)O[C@H]1C)C[C@H](O)[C@H]2C(=O)O` [amphotericin B, reference compound], the MBC in assay [5] (Candida albicans, aliquot plated on MHA, 18 h, kills 99.9%, read-out: MBC) was determined as 4 µM (≈ 3.7 µg/mL). For the same compound, the MIC in assay [5] (yeast 1 × 10^6 CFU/mL, 37 °C, 24 h, 1-512 µM, absorbance 550 nm, read-out: MIC) turned out to be 4 µM (≈ 3.7 µg/mL).

The values are drawn from publication PMC9221509, “Discovery of a Novel Antimicrobial Peptide, Temporin-PKE, from the Skin Secretion of Pelophylax kl. esculentus, and Evaluation of Its Structure-Activity Relationships” (Biomolecules, 2022).
